In one series the test system is yeasts. In words: CLSI M27-A3 MIC. The format is cell-based.
In the next series the test system is eumycetoma. The conditions noted are these: in vivo; cited from earlier work. The source says: Mycetoma: Mycetoma is a chronic, progressive, implantation inflammatory disease characterised by severe and stigmatising deformities, disability, and high morbidity. The disease is caused by fungi (eumycetoma) and several Actinomycetales members (actinomycetoma). Its estimative global burden is 9000 cases. There are no robust epidemiological studies on mycetoma in SA, but it is tconsidered the third most prevalent endemic IM in SA, especially among low socioeconomic adult males living in rural areas from Argentina, Brazil, Colombia and Venezuela, where the principal agents are Madurella spp. a ...

Series [1] concerns Cryptococcus neoformans var grubii. In words: microbe, parasite or virus in culture. The format is cell-based. The conditions noted are these: read-out: Minimal Inhibitory Concentration (MIC).
Another series has as its system Candida isolates. The format is cell-based, Candida spp. The following applies: E-Test strips.
In a further series the test system is C. auris isolates. As to the kind of experiment: AmB Etest. The format is cell-based, Candida auris. The conditions noted are these: for MIC: Candidozyma auris. The protocol: Methods: A total of 313 C. auris isolates representing five geographic clades (I—South Asian; II—East Asian; III—South African; IV—South American; V—Iranian) were investigated in this study. Antifungal susceptibility testing (AFST) with AmB was performed with Etest according to the manufacturer instructions. […] Ergosterol biosynthesis pathway genes ERG2 (C-8 sterol isomerase), ERG3 (C-5 sterol desaturase), ERG6 (sterol 24-C-methyltransferase), and ERG11 (lanosterol 14-α-demethylase) were amplified and sequenced. […] AmB susceptibility was then determined for the transformed strain.

A further series relates to R. delemar 99–880. In words: CLSI M38 in vitro susceptibility. The format is cell-based, Rhizopus delemar. The following applies: Rhizopus delemar, read-out: MIC at 100% inhibition of growth. The protocol: Methods & Materials: In vitro susceptibility was conducted by the CLSI M38 method using a clinical isolate of Rhizopus delemar (a common cause of mucormycosis). ICR mice were immunosuppressed with cyclophosphamide and cortisone acetate on days −2, +3, and +8, relative to infection with intratracheally instilled R. delemar. […] Mice survival through Day +21 served as the primary endpoint.

Series [2] can be described thus: Voriconazole level monitoring with flucloxacillin co-administration. The format is in vivo, human. The source says:
Methods: Synoptic description of a significant interaction in 2 critically ill patients and analysis of interaction screening in validated data bases.

The test system of series [3] is A. fumigatus isolates from BAL. As to the kind of experiment: Sensititre YeastOne Y010, read according to CLSI (2020). The format is cell-based, Aspergillus fumigatus. The protocol: Materials & Methods: Retrospective evaluation of antifungal susceptibility for A. fumigatus isolates from bronchoalveolar lavage (BAL) fluid in pts with invasive pulmonary aspergillosis was performed. All isolates were obtained from hematological pts admitted to National Research Center for Hematology (Moscow) between 2016 and 2020. All A. fumigatus species were identified by morphology, matrix-assisted laser desorption ionization time of flight mass spectrometry. The azole-resistant strains were identified by ITS, β-tubulin, calmodulin and actine gene sequencing. […] The MIC of antifungal agents were read according to the CLSI (2020). Cyp51A was sequenced to establish the most common resistance mechanisms embedded in azole-resistant A. fumigatus.

Series [4] in a line: Therapeutic drug monitoring of VRC plasma levels. The format is in vivo, human. The protocol:
Materials & Methods: Patients are aged over 18 years and given antifungal therapy between January 2019–November 2020 in the Hacettepe University Hospitals were included. The study was approved by the University Clinical Research Ethics Committee. Demographics and antifungal treatment periods of the patients were analyzed retrospectively. As of January 2020, VRC plasma levels had started to be analyzed on a weekly basis in the study setting. Plasma VRC levels (target range: 1–5.5 mg/L) were measured by using liquid chromatography—triple quadrupole mass spectrometer (Shimadzu LCMS-8040). The impact of TDM on appropriateness of VRC treatment were evaluated by the numbers of treatment switch and the use of oral route.

A further series has as its system Scedosporium apiospermum. In words: EUCAST reference method MIC. The format is cell-based. The protocol:
Case presentation: A patient presented with a bursitis of their left elbow. Six months before they were treated with lymphodepleting chemotherapy directly followed by B-cell associated CD19-specific chimeric antigen receptor (CAR) T cell therapy for recurrence of follicular lymphoma. They were considered immunocompromised, with total neutrophils and lymphocytes slightly below normal levels, absent B-cells, and a treatment associated persistent hypogammaglobulinaemia. Four weeks before presentation at our hospital they contacted their GP because of swelling and pain of their left elbow. Their GP aspirated fluid from their elbow, injected steroids and started antibiotics, but now there was recurrence of swelling and pain. Bursitis without arthritis was diagnosed by a rheumatologist and the bursa was surgically opened and drained, relieving pus. The patient was started on oral flucloxacillin and sent home. Two days later the culture of the pus from the bursa grew white colonies on a Sabouraud dextrose agar plate, showing long conidophores with large oval conidia on microscopy. […] Over the next few weeks the bursitis symptoms diminished. […] Voriconazole is considered first line treatment for Scedosporium infections. […] Eight weeks later there were no signs of bursitis and posaconazole was discontinued.

In series [5] the test system is S. apiospermum (SA) biofilms. As to the kind of experiment: Mature biofilm damage, XTT metabolic reduction assay. The following applies: Scedosporium apiospermum, 24 h, read-out: BF MIC50. A general note: Tetrazolium dyes change colour on reduction, which living cells bring about.
The nature of series [6]: Universal voriconazole prophylaxis in lung transplant recipients, retrospective. The format is in vivo, human. The protocol: Materials & Methods: Retrospective study of all adult lung transplant recipients at Copenhagen University Hospital during 2010 to 2019. […] Failure to complete prophylaxis was defined as recieving <9 of the intented 12 weeks of prophylaxis. Liver and kidney toxicity was graded according to Common Terminology Criteria for Adverse Events (CTCAE) criteria (grades 0–4 according to degree of elevation). Grade ≥2 adverse events were classified as high. Lung biopsies were evaluated for acute rejection (grade ≥A2). Calcineurin-inhibitor (CNI) plasma-concentrations were evaluated for off-target episodes. High and low episodes were defined as ≥2 concecutive samples 20% above or below target range limits, respectively. […] Acute rejections were classified as related to low CNI if they occurred 0–30 days from low CNI. Grade ≥2 kidney toxicity was considered related to high CNI if it occurred between two days prior to high CNI to 7 days after.

Values after ≈ are worked out from the molar mass of the structure shown. Read-outs that look alike come from different tables or passages of the source. Some results are limits rather than exact numbers.

For the compound `CCC(C)n1ncn(-c2ccc(N3CCN(c4ccc(OCC5COC(Cn6cncn6)(c6ccc(Cl)cc6Cl)O5)cc4)CC3)cc2)c1=O` (stereo not shown) [itraconazole], the MIC against yeasts (four sensitive isolates) was 0.03 µg/mL (≈ 0.0425 µM); in the series on yeasts (the other isolates, drug resistance), 0.06 to 16 µg/mL (≈ 0.085 to 22.7 µM). The Cure rate in the series with eumycetoma is 25–35%.
For `OC(Cn1cncn1)(Cn1cncn1)c1ccc(F)cc1F` [fluconazole], the MIC in [1] is > 32 µg/mL. In the series on Candida isolates, the “comparative effectiveness among antifungals” value was “most effective antifungal”.
For `C[C@@H]1[C@H](O)[C@@H](C)/C=C/C=C/C=C/C=C/C=C/C=C/C=C/[C@H](O[C@@H]2O[C@H](C)[C@@H](O)[C@H](N)[C@@H]2O)C[C@@H]2O[C@](O)(C[C@@H](O)C[C@@H](O)[C@H](O)CC[C@@H](O)C[C@@H](O)CC(=O)O[C@H]1C)C[C@H](O)[C@H]2C(=O)O` [amphotericin B], the “isolates with AmB MIC values ≥2 mg/L” value in the series on C. auris isolates (19 of 313 isolates) was 6.1%. The MIC with C. auris isolates (read-out: AmB MIC, South African isolate SA18, ERG6 missing base pairs 52–543) was 6 µg/mL (≈ 6.49 µM); in the series on C. auris isolates (read-out: AmB MIC, susceptible strain after replacement with ERG6 of SA18) it was > 32 µg/mL; in the series on C. auris isolates (read-out: AmB MIC, susceptible strain with wild-type ERG6), 0.5 µg/mL (≈ 0.541 µM); in the series with R. delemar 99–880 it was 0.06 µg/mL (≈ 0.0649 µM).
In the case of `C[C@@H](c1ncncc1F)[C@](O)(Cn1cncn1)c1ccc(F)cc1F` [voriconazole], the voriconazole level in series [2] (Case 1, 2 days after flucloxacillin interruption, 8 mg/kg bid) is on record as < 0.2 µg/mL; in [2] (Case 1, day 10 of combination with high dose flucloxacillin, 4 mg/kg bid), < 0.2 µg/mL; in [2] (Case 1, subsequently after 3 days), 3 µg/mL; in series [2] (Case 2, after flucloxacillin stop and dose increase to 6 mg/kg bid), 4.2 µg/mL; in series [2] (Case 2, before flucloxacillin) it was 3.5 µg/mL; in series [2] (Case 2, during high dose flucloxacillin, two levels), < 0.5 µg/mL. Also, the voriconazole level worked out at 15.1 µg/mL in series [2] (Case 2, further increase, toxic level) and 3.2 µg/mL in [2] (Case 2, intravenous maintenance 4 mg/kg bid). The “isolates with elevated MIC” value in series [3] (2 of 35) is 5.7%. Besides, the MIC was > 8 µg/mL in [3] (Aspergillus fumigatus, BAL, read-out: elevated minimum inhibitory concentrations (MIC)); 0.5 µg/mL (≈ 1.43 µM) against Scedosporium apiospermum (first isolate from bursa pus); 1 µg/mL (≈ 2.86 µM) against Scedosporium apiospermum (isolate two months later, under posaconazole). For the same compound, the “median plasma level (range)” value in [4] (88 levels in 34 patients, LC-MS) is 4.2 (0.2–18.1) mg/L. The “Adverse effects, n (%)” value is reported as 0 (0.0) in [4] (Subtherapeutic (<1 mg/L)), 4 (13.8) in [4] (Supratherapeutic (>5.5 mg/L)) and 0 (0.0) in [4] (Therapeutic (1–5.5 mg/L)). Besides, in [4] (all at supratherapeutic levels), the VRC-related adverse effects entry was “Four”. Moreover, the “plasma levels at subtherapeutic range (<1 mg/L), n (%)” value in [4] (n = 88) was 14 (15.9%). Also, the “plasma levels at supratherapeutic range (>5.5 mg/L), n (%)” value in series [4] (n = 88) is 29 (33.0%). In addition, in [4] (n = 88), the “plasma levels at therapeutic range (1–5.5 mg/L), n (%)” value is 45 (51.1%). For the same compound, the MIC50 in series [5] amounted to 32 µg/mL (≈ 91.6 µM). In addition, the “low CNI plasma-concentration episode related to discontinuation of voriconazole” value in series [6] (patients of the universal prophylaxis period) was determined as 45%. In addition, the “failed to complete prophylaxis” value in series [6] (receiving <9 of the intended 12 weeks, 183 patients on voriconazole prophylaxis) is 62%. Moreover, the “failure to complete prophylaxis due to hepatic toxicity” value in series [6] (share of the 114 patients who failed to complete) is reported as 72%.

These data come from publication PMC8624133, “10th Trends in Medical Mycology Held on 8 to 11 October 2021, Aberdeen, Scotland, Organized by the European Confederation of Medical Mycology (ECMM)” (Journal of Fungi, 2021).
